Common to all, as to assay type: in vivo
For experiment [1], the system named is Solanum nigrum (SOLNI). The experiment in a line: Example B post-emergence herbicidal activity, glasshouse pot test. Particulars: 312 h, evaluated after 13 days, read-out: Post-emergence activity SOLNI (100=total damage to plant; 0=no damage to plant); for pest or weed control at 250 g/ha: rate 250 g/ha; for pest or weed control at 1000 g/ha: rate 1000 g/ha. In a few lines:
(§1)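 Pots, standard soil; spray at day 1 (pre) or day 8 (post); a.i. formulated in acetone/water 50:50 + 0.5% Tween 20; 24/16 °C, 14 h light, 65% RH, watered twice daily; visual rating at 13 d (0 = no damage, 100 = total damage).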

In experiment [2] the test system is Setaria faberi (SETFA). Described as above. The note with it: 312 h, evaluated after 13 days, read-out: Post-emergence activity SETFA (100=total damage to plant; 0=no damage to plant); for pest or weed control at 250 g/ha: rate 250 g/ha; for pest or weed control at 1000 g/ha: rate 1000 g/ha. In a few lines:
as §1

Experiment [3] has as its system Echinochloa crus-galli (ECHCG). The experiment is described as above. The note with it: 312 h, evaluated after 13 days, read-out: Post-emergence activity ECHCG (100=total damage to plant; 0=no damage to plant); for pest or weed control at 250 g/ha: rate 250 g/ha; for pest or weed control at 1000 g/ha: rate 1000 g/ha. The gist of the method: as §1
Experiment [4] relates to Avena fatua (AVEFA). The description is as above. Particulars: 312 h, evaluated after 13 days, read-out: Post-emergence activity AVEFA (100=total damage to plant; 0=no damage to plant); for pest or weed control at 250 g/ha: rate 250 g/ha; for pest or weed control at 1000 g/ha: rate 1000 g/ha. The gist of the method:
as §1

The test system of experiment [5] is Amaranthus retroflexus (AMARE). Described as above. Particulars: 312 h, evaluated after 13 days, read-out: Post-emergence activity AMARE (100=total damage to plant; 0=no damage to plant); for pest or weed control at 250 g/ha: rate 250 g/ha; for pest or weed control at 1000 g/ha: rate 1000 g/ha. The gist of the method: as §1
The test system of experiment [6] is Alopecurus myosuroides (ALOMY). Described as above. Particulars: 312 h, evaluated after 13 days, read-out: Post-emergence activity ALOMY (100=total damage to plant; 0=no damage to plant); for pest or weed control at 250 g/ha: rate 250 g/ha; for pest or weed control at 1000 g/ha: rate 1000 g/ha. The gist of the method:
as §1

Experiment [7] has as its system Solanum nigrum (SOLNI). Description: Example B pre-emergence herbicidal activity, glasshouse pot test. The note with it: 312 h, evaluated after 13 days, read-out: Pre-emergence activity SOLNI (100=total damage to plant; 0=no damage to plant); for pest or weed control at 250 g/ha: rate 250 g/ha; for pest or weed control at 1000 g/ha: rate 1000 g/ha. In a few lines: as §1

In experiment [8] the test system is Setaria faberi (SETFA). Described as above. The note with it: 312 h, evaluated after 13 days, read-out: Pre-emergence activity SETFA (100=total damage to plant; 0=no damage to plant); for pest or weed control at 250 g/ha: rate 250 g/ha; for pest or weed control at 1000 g/ha: rate 1000 g/ha. In a few lines: as §1
For experiment [9], the system named is Echinochloa crus-galli (ECHCG). The description is as above. The note with it: 312 h, evaluated after 13 days, read-out: Pre-emergence activity ECHCG (100=total damage to plant; 0=no damage to plant); for pest or weed control at 250 g/ha: rate 250 g/ha; for pest or weed control at 1000 g/ha: rate 1000 g/ha. The gist of the method: as §1
In experiment [10] the test system is Avena fatua (AVEFA). The experiment is described as above. Particulars: 312 h, evaluated after 13 days, read-out: Pre-emergence activity AVEFA (100=total damage to plant; 0=no damage to plant); for pest or weed control at 250 g/ha: rate 250 g/ha; for pest or weed control at 1000 g/ha: rate 1000 g/ha. In a few lines: as §1
Experiment [11] relates to Amaranthus retroflexus (AMARE). The experiment is described as above. Particulars: 312 h, evaluated after 13 days, read-out: Pre-emergence activity AMARE (100=total damage to plant; 0=no damage to plant); for pest or weed control at 250 g/ha: rate 250 g/ha; for pest or weed control at 1000 g/ha: rate 1000 g/ha. In a few lines: as §1
The test system of experiment [12] is Alopecurus myosuroides (ALOMY). Described as above. Particulars: 312 h, evaluated after 13 days, read-out: Pre-emergence activity ALOMY (100=total damage to plant; 0=no damage to plant); for pest or weed control at 250 g/ha: rate 250 g/ha; for pest or weed control at 1000 g/ha: rate 1000 g/ha. In a few lines: as §1

As for `CCc1ccc(-c2ccc(Cl)cc2F)cc1C1=C(O)C(C)(C)C(=O)C(C)(C)C1=O` [Compound B-31], the pest or weed control at 250 g/ha with Solanum nigrum (SOLNI) [1] turned out to be 0%; in the experiment on Setaria faberi (SETFA) [2] it was 90%; in experiment [3], 90%; with Avena fatua (AVEFA) [4], 0%; in experiment [5] it was 0%; in [6] it was 10%. Also, the pest or weed control at 250 g/ha is 0% in the experiment on Solanum nigrum (SOLNI) [7]; 50% in the experiment with Setaria faberi (SETFA) [8]; 50% in [9]; 20% in the experiment with Avena fatua (AVEFA) [10]; 0% in experiment [11]; 0% in experiment [12].

Regarding `CCc1ccc(-c2ccc(Cl)nc2C)cc1C1=C(O)C(C)(C)C(=O)C(C)(C)C1=O` [Compound B-30], the pest or weed control at 250 g/ha with Solanum nigrum (SOLNI) [1] turned out to be 10%; with Setaria faberi (SETFA) [2], 70%; in [3], 70%; in the experiment on Avena fatua (AVEFA) [4] it was 0%; in [5], 0%; in experiment [6], 20%. Also, the pest or weed control at 250 g/ha (in the experiment with Solanum nigrum (SOLNI) [7]; with Setaria faberi (SETFA) [8]; in experiment [9]; in the experiment on Avena fatua (AVEFA) [10]; in experiment [11]; in experiment [12]) was 0% in each case.

For the compound `Cc1ccc(-c2ccc(Cl)nc2C)cc1C1=C(O)C(C)(C)C(=O)C(C)(C)C1=O` [Compound B-6], the pest or weed control at 1000 g/ha in the experiment with Solanum nigrum (SOLNI) [1] came to 0%; in the experiment with Setaria faberi (SETFA) [2], 30%; in experiment [3], 50%; with Avena fatua (AVEFA) [4] it was 0%; in [5] it was 0%; in experiment [6], 20%. Besides, the pest or weed control at 1000 g/ha with Solanum nigrum (SOLNI) [7] was determined as 90%; with Setaria faberi (SETFA) [8] it was 0%; in experiment [9], 0%; in the experiment with Avena fatua (AVEFA) [10] it was 0%; in [11] it was 100%; in experiment [12] it was 0%.

For the compound `Cc1ccc(-c2ccc(Cl)cc2Cl)cc1C1=C(O)C(C)(C)C(=O)C(C)(C)C1=O` [Compound B-7], the pest or weed control at 1000 g/ha turned out to be 70% in the experiment with Solanum nigrum (SOLNI) [1]; 70% in the experiment on Setaria faberi (SETFA) [2]; 60% in [3]; 20% in the experiment with Avena fatua (AVEFA) [4]; 70% in experiment [5]; 20% in experiment [6]. Also, the pest or weed control at 1000 g/ha in the experiment with Solanum nigrum (SOLNI) [7] was found to be 20%; in the experiment with Setaria faberi (SETFA) [8], 60%; in experiment [9], 50%; in the experiment with Avena fatua (AVEFA) [10] it was 0%; in [11] it was 0%; in experiment [12], 0%.

With `CCc1ccc(-c2ccc(Cl)nc2)cc1C1=C(O)C(C)(C)C(=O)C(C)(C)C1=O` [Compound B-9], the pest or weed control at 250 g/ha with Solanum nigrum (SOLNI) [1] amounted to 20%; in the experiment on Setaria faberi (SETFA) [2], 70%; in experiment [3], 80%; in the experiment on Avena fatua (AVEFA) [4], 0%; in [5], 40%; in experiment [6], 40%. Moreover, the pest or weed control at 250 g/ha (in the experiment on Solanum nigrum (SOLNI) [7]; in the experiment on Setaria faberi (SETFA) [8]; in [9]; in the experiment with Avena fatua (AVEFA) [10]; in experiment [11]; in experiment [12]) was 0% throughout.

Take `CCc1ccc(-c2ccc(Cl)cc2)cc1C1=C(OC(=O)C(C)OC)C(C)(C)OC(C)(C)C1=O` [Compound D-19]: the pest or weed control at 1000 g/ha was 0% in the experiment with Solanum nigrum (SOLNI) [1]; 100% with Setaria faberi (SETFA) [2]; 100% in experiment [3]; 80% with Avena fatua (AVEFA) [4]; 0% in experiment [5]; 90% in experiment [6]. The pest or weed control at 1000 g/ha in the experiment with Solanum nigrum (SOLNI) [7] came to 0%; with Setaria faberi (SETFA) [8], 100%; in experiment [9], 100%; in the experiment on Avena fatua (AVEFA) [10], 20%; in experiment [11] it was 0%; in experiment [12], 70%.

On to `CCc1ccc(-c2ccc(Cl)cc2)cc1C1=C(OC(=O)C2CC2)C(C)(C)OC(C)(C)C1=O` [Compound D-10], for which the pest or weed control at 1000 g/ha in the experiment on Solanum nigrum (SOLNI) [1] was determined as 0%; in the experiment on Setaria faberi (SETFA) [2], 100%; in [3] it was 100%; with Avena fatua (AVEFA) [4], 20%; in [5] it was 20%; in experiment [6] it was 90%. For the same compound, the pest or weed control at 1000 g/ha in the experiment with Solanum nigrum (SOLNI) [7] is 0%; with Setaria faberi (SETFA) [8], 100%; in [9], 100%; with Avena fatua (AVEFA) [10], 0%; in experiment [11] it was 0%; in [12], 50%.

With `Cc1ccc(-c2ccc(F)cc2F)cc1C1=C(O)C(C)(C)OC(C)(C)C1=O` [Compound A-27], the pest or weed control at 1000 g/ha was determined as 50% in the experiment on Solanum nigrum (SOLNI) [1]; 100% in the experiment on Setaria faberi (SETFA) [2]; 100% in experiment [3]; 80% with Avena fatua (AVEFA) [4]; 100% in experiment [5]; 80% in experiment [6]. Besides, the pest or weed control at 1000 g/ha with Solanum nigrum (SOLNI) [7] is 20%; in the experiment with Setaria faberi (SETFA) [8] it was 90%; in experiment [9] it was 100%; in the experiment on Avena fatua (AVEFA) [10] it was 60%; in experiment [11], 10%; in experiment [12] it was 80%.

As to `Cc1ccc(-c2ccc(Cl)cc2)cc1C1=C(O)C(C)(C)C(=O)C(C)(C)C1=O` [Compound B-4], the pest or weed control at 1000 g/ha with Solanum nigrum (SOLNI) [1] is 40%; in the experiment with Setaria faberi (SETFA) [2], 90%; in [3], 90%; in the experiment on Avena fatua (AVEFA) [4] it was 30%; in experiment [5] it was 70%; in experiment [6] it was 80%. Moreover, the pest or weed control at 1000 g/ha with Solanum nigrum (SOLNI) [7] amounted to 0%; in the experiment on Setaria faberi (SETFA) [8] it was 0%; in experiment [9], 30%; in the experiment on Avena fatua (AVEFA) [10], 0%; in experiment [11], 0%; in experiment [12], 0%.
